pIC50: −log10 of the molar value. Read-outs that look alike come from different tables or passages of the source. Values belong to the molecule of their own block, whether it stands above or below them.
Experiments:
[1] = wild-type versus CB1 receptor knockout mice; cited from earlier work
[2] = doses of 5, 10 and 20 mg daily; cited from earlier work
[3] = target: T1, human cannabis CB1 receptor (Homo sapiens, UniProt P21554); assay: Affinity for cannabinoid CB1 receptors, [3H]-CP-55,940 radioligand binding on HEK cell membranes
T1 construct: expressed in transfected cells; host or cells: human embryonic kidney (HEK) cells, Semliki Forest Virus system
T1 sequence (P21554 whole entry): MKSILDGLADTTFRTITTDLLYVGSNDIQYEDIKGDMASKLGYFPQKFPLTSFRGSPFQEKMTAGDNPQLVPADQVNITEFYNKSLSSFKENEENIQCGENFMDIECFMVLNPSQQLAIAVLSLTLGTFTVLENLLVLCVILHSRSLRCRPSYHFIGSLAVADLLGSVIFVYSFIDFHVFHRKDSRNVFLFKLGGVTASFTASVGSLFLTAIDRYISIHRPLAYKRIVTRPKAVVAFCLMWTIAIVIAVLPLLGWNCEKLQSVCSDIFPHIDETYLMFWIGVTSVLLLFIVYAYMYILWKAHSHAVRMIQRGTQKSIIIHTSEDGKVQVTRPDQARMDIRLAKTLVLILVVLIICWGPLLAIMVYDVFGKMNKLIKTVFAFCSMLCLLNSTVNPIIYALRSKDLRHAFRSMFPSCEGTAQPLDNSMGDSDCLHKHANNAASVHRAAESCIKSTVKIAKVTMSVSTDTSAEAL
Protocol: The affinity of the compounds of the invention for cannabinoid CB1 receptors was determined using membrane preparations of human embryonic kidney (HEK) cells in which the human cannabis CB1 receptor is transiently transfected using the Semliki Forest Virus system in conjunction with [3H]-CP-55,940 as radioligand. After incubation of a freshly prepared cell membrane preparation with the [3H]-ligand, with or without addition of compounds of the invention, separation of bound and free ligand was performed by filtration over glassfiber filters. Radioactivity on the filter was measured by liquid scintillation counting.
The compounds of formula (I) show an excellent affinity for the CB1 receptor, determined with the experimental conditions described in Devane et. al. Mol. Pharmacol. 34 (1988) 605-613.

[4] = affinity for the CB1 receptor, HEK membranes, [3H]-CP-55,940, read-out: IC50

Structure (SMILES): Cc1c(C(=O)NN2CCCCC2)nn(-c2ccc(Cl)cc2Cl)c1-c1ccc(Cl)cc1 [SR 141716]
food intake [1]: reduces food intake in wild-type but not knockout mice | body weight compared to placebo [2]: significantly reduced body weight

pIC50 [3, 4]: 7.52
Structure (SMILES): CCCCNC(=O)c1ccc2c(c1)nc(COc1ccccc1)n2Cc1ccc(OC(F)(F)F)cc1 [Example 61, 2-Phenoxymethyl-1-(4-trifluoromethoxy-benzyl)-1H-benzoimidazole-5-carboxylic acid butyl-amide]

Structure (SMILES): CC(Oc1ccccc1)c1nc2ccc(N3CCN(S(=O)(=O)N(C)C)CC3)cc2n1Cc1ccc(Cl)cc1 (centres unmarked) [Example 51, 4-[3-(4-chloro-benzyl)-2-(1-phenoxy-ethyl)-3H-benzoimidazol-5-yl]-piperazine-1-sulfonic acid dimethylamide]
pIC50 [3]: 7.22

pIC50 [3, 4]: 7.70
Structure (SMILES): CCCCNC(=O)c1ccc2c(c1)cc(COc1ccccc1)n2Cc1ccc(OC(F)(F)F)cc1 [Example 101, 2-phenoxymethyl-1-(4-trifluoromethoxy-benzyl)-1H-indole-5-carboxylic acid butylamide]

Source: patent publication US7786128B2, “Indole or benzimidazole derivatives as CB1 inverse agonists” (Hoffmann-La Roche Inc., priority 2004, dated 2010)
